Laboratory results published in a compilation of properties of binary mixtures (doi:10.1021/acs.jced.0c00426).

Assay: xn = mol fraction of the nth substance listed
Conditions: 101.3 kPa

CNc1ccccc1 + CCCCCCCCn1cc[n+](C)c1.F[B-](F)(F)F
x2 = 0
Conditions	speed of sound [m/s]
298.15 K	1565
303.15 K	1546
308.15 K	1527
313.15 K	1508
318.15 K	1489
323.15 K	1471

CNc1ccccc1 + CCCCCC[n+]1ccn(C)c1.F[B-](F)(F)F
speed of sound [m/s]
Conditions	x2 = 0	x2 = 0.1058	x2 = 0.2201	x2 = 0.3079	x2 = 0.395	x2 = 0.501	x2 = 0.6034	x2 = 0.7024	x2 = 0.804	x2 = 0.8984
293.15 K	1584	–	1589	1580	1569	1557	–	1538	1531	1526
298.15 K	1565	1578	1577	1569	–	1549	1539	1532	1526	1523
303.15 K	1546	–	1560	1554	1545	1535	–	1519	1513	1510
308.15 K	–	1545	1544	–	–	–	1512	1505	1501	1497
313.15 K	1508	1527	1528	1523	1516	1507	1499	1493	1488	–
318.15 K	1489	–	1511	1507	1501	–	1486	1480	1476	1472
323.15 K	–	1490	1495	1492	1486	1479	1473	1467	1464	1460

CNc1ccccc1 + CCCC[n+]1ccn(C)c1.F[B-](F)(F)F
speed of sound [m/s]
Conditions	x2 = 0	x2 = 0.0973	x2 = 0.184	x2 = 0.2982	x2 = 0.3909	x2 = 0.5025	x2 = 0.5928	x2 = 0.7005	x2 = 0.7963	x2 = 0.901
293.15 K	1584	1598	1602	–	–	1594	–	1586	–	1580
298.15 K	–	–	1587	1590	1586	1580	1577	1573	1571	1569
303.15 K	1546	1564	1572	1575	1572	–	–	–	–	1558
308.15 K	1527	–	1555	1560	–	1554	–	1550	–	1547
313.15 K	1508	1532	1540	1544	1544	1543	1541	1539	–	1536
318.15 K	–	1515	1524	1529	1530	–	1528	1527	1526	1525
323.15 K	1471	1498	1508	1514	–	1516	1515	1516	1515	1516

CCCCCCCCn1cc[n+](C)c1.F[B-](F)(F)F + CNc1ccccc1
speed of sound [m/s]
Conditions	x1 = 0.1032	x1 = 0.2037	x1 = 0.285	x1 = 0.383	x1 = 0.4978	x1 = 0.5939	x1 = 0.7016	x1 = 0.7942	x1 = 0.9002	x1 = 1
293.15 K	1582	1571	–	1549	1536	1526	–	1509	1502	1499
298.15 K	–	1555	1545	1533	1521	1512	1502	1495	1488	1485
303.15 K	1548	1538	1529	1518	1507	1499	1489	–	1475	1472
308.15 K	1531	1522	1513	1503	–	–	–	1469	1462	–
313.15 K	1514	–	1498	1489	1479	–	1463	1456	1450	1446
318.15 K	1496	1491	1483	–	1465	1458	1451	1444	1438	1433
323.15 K	1479	–	1468	1460	1451	1444	–	1431	1426	1421

CCCCCC[n+]1ccn(C)c1.F[B-](F)(F)F + CNc1ccccc1
x1 = 1
Conditions	speed of sound [m/s]
298.15 K	1519
303.15 K	1507
308.15 K	1494
313.15 K	1482
318.15 K	1470
323.15 K	1458

CCCC[n+]1ccn(C)c1.F[B-](F)(F)F + CNc1ccccc1
x1 = 1
Conditions	speed of sound [m/s]
303.15 K	1555
313.15 K	1532
318.15 K	1521
323.15 K	1511
